Measurements reported in patent publication US6297281A, “Association of no syntase inhibitors with trappers of oxygen reactive forms” (priority 1996, dated 2001).
Read-outs that look alike come from different tables or passages of the source.

Columns and labels:
[1] = tested on: production of superoxide anions by J774A1 cells; assay: In vitro effect on the formation of superoxide anions (PMA-activated J774A1 cells, luminol chemiluminescence); assay type: cell-based, murine
Description: 4) In vitro effect on the formation of superoxide anions
The activation of the macrophage cells J774A1 by phorbol myristate acetate (PMA) leads to the production of superoxide anions in a few minutes. These superoxide anions are able to oxidise a luminescent substrate, luminol. This reaction generates photons, the production of which is measured by means of a chemiluminometer. The effects of the products on the production of superoxide anions are tested by incubating the J774A1 cells at 37° C. in the presence of PMA, products to be tested, and luminol. The results are expressed in terms of the IC50 value.

focal cerebral ischaemia = assay: Effect on focal cerebral ischaemia with reperfusion (transient occlusion of the middle cerebral artery); assay type: in vivo, rat (male Sprague-Dawley)
Description: Their activity was evaluated on a model of focal cerebral ischaemia in the rat. […] The effects of the combination were compared with those produced by a treatment with the inhibitor of nitrogen monoxide or the trap of reactive forms of oxygen alone.
5) Effect on focal cerebral ischaemia with reperfusion
The experiments are carried out on male Sprague-Dawley rats (Charles River) weighing between 330 and 360 g. After anaesthesia with isoflurane, the rats undergo transient occlusion of the middle cerebral artery described by Memezawa et al. (Exp. Brain Res. 89, 67-78, 1992). A wire is introduced into the anterior cerebral artery bringing about an occlusion of the middle cerebral artery. Two hours later, the wire is withdrawn so as to permit recirculation of the blood to the Willis polygon. The temperature of the animals is monitored and controlled for 6 hours after occlusion. Forty eight hours after occlusion, the rats are anlesthetised with isoflurane and decapitated. Samples of brain are taken rapidly and immersed for 2 minutes in isopentane at -15° C. Six sections 2 mm thick are obtained and placed in a solution containing 2% 2,3,5-triphenyltetrazolium chloride (TCC) for 20 min and then fixed with formalin. The infarcted zone appears white and the healthy zone red. The infarcted surface area is measured at the site of the (sections by means of an image analyser. The volume of the infarct is calculated by integrating these various surface areas in the knowledge that they are 2 mm apart. The products are administered intraperitoneally. The first treatment is carried out 4 hours after occlusion, that is, 2 hours after the w ire was withdrawn, then 24 hours afterwards.
Compound of example 1: 4 groups of animals are created:
Group 1: treated with physiol ogical serum
Group 2: treated with A (30 mg/kg)
Group 3: treated with B (20 mg/kg)
Group 4: treated with AB (50 mg/kg)
Compound of example 2: 4 groups of animals are created:
Group 1: treated with physiological serum
Group 2: treated with A (10 mg/kg)
Group 4: treated with AB (A: 10 mg/kg and B: 20 mg/kg)
Compound of example 3: 4 groups of animals are created:
Group 2: treated with A (0.03 mg/kg i.v.)
Group 3: treated with B (20 mg/kg i.p.)
Group 4: treated with AB (A: 0.03 mg/kg i.v. and B: 20 mg/kg i.p.)

inducible NO synthase [2] = biological target: T1, inducible NO synthase (Mus musculus, UniProt P29477); assay: In vitro effect on the production of nitrites by murine macrophages J774A1; assay type: cell-based; details: J774A1 cells, LPS 1 μg/ml + IFN-γ 50 U/ml, 48 hours; read-out: IC50 Inducible NO synthase (formation of nitrites)
T1 construct: The NO synthase is isolated with an extraction buffer; endogenous in cells; sonicated, 100,000 g ultracentrifuged extract
Description: 3) In vitro effect on the production of nitrites by murine macrophages J774A1
This test is used to measure the inhibitory activity of the products on inducible NO synthase of culture cells. The cells are cultivated in DMEM medium (Dulbecco's Modified Eagle Medium) enriched with 10% foetal calf serum at 37° C. under an atmosphere of 5% CO2. For the experiments, they are distributed in 96-well plates (50,000 cells per well) and incubated in DMEM without phenol red containing 10% foetal calf serum with LPS (1 μg/ml) and murine IFN-γ(50 U/ml) in the presence or absence of the products to be tested. After 48 hours, the concentration of nitrites in the culture media, degradation products of nitrogen monoxide, is measured by a colorimetric method according to Green et al. (Analytical Biochemistry, 126, 131-138 (1982)). The results are expressed in terms of the IC50 value and are summarised in the table of paragraph 2 (third column of results entitled "inducible NO synthase, formation of nitrites").

inducible NO synthase [3] = biological target: T1, inducible NO synthase; assay: In vitro effect on inducible NO synthase of murine macrophages J774A1 (formation of citrulline); assay type: biochemical; details: NO synthase isolated from LPS/IFN-γ activated J774A1 macrophages, pH 7.4
Description: 2) In vitro effect on inducible NO synthase of murine macrophages J774A1
Murine macrophages J774A1 produce a large quantity of nitrogen monoxide after activation by lipopolysaccharides (LPS) and interferon-γ(IFN-γ). The cells are cultivated in DMEM medium (Dulbecco's Modified Eagle Medium) enriched with 10% foetal calf serum at 37° C. under an atmosphere of 5% CO2 after activation by LPS and IFN-γ. They are seeded in a quantity of 5000 cells/cm^2 in 150 cm^2 bottles. The incubations are carried out in the presence of LPS (1g/ml) and murine IFN-γ (50 U/ml) in DMEM enriched with 10% foetal calf serum. The NO synthase is isolated with an extraction buffer (HEPES 50 mM, pH 7.4, dithiothreitol 0.5 mM, pepstatin A 1 mg/ml, leupeptin 1 mg/ml, soya trypsin inhibitor 1 mg/ml, antipain 1 mg/ml, and PMSF 10 mg/ml). After sonication in the extraction buffer at 4° C., the homogenised products are ultracentrifuged (100,000 g with 3,5-di-tert.butyl-4-hydroxybenzoic acid 4° C. for 1 h). The protocol is then identical to that of cerebellum NO synthase except for the composition of the incubation buffer (100 mM of HEPES, pH 7.4, 1 mM dithiothreitol, 2.5 mM of CaCl2, 10 M of tetrahydrobiopterin, FAD 10 μM, BSA 1 mg/ml, 2 mM of reduced NADPH).

constitutive NO synthase = constitutive NO synthase (Rattus norvegicus, UniProt P29476); assay: biochemical
Description: 1) In vitro effect of constitutive NO synthase on the rat cerebellum
The test consists in measuring the conversion, by NO synthase, of L-arginine to L-citrulline. Samples of cerebella of Sprague-Dawley rats (300 g--Charles River) are taken rapidly, dissected at 4° C. and homogenised in a volume of extraction buffer (HEPES 50 mM, EDTA 1 mM, pH 7.4, pepstatin A […], leupeptin […]) centrifuged at 21000 g for 15 min at 4° C. The assay is carried out in glass test tubes in which are distributed […] of incubation buffer containing 100 mM of HEPES, pH 7.4, 2 mM of EDTA, 2.5 mM of CaCl2, 2 mM of dithiothreitol,2 mM of reduced NADPH and 10 µg/ml of calmodulin. […] The reaction is initiated by adding 50 μl of homogenised product, the final volume being 200 μl (the 25 μl shortfall being either water or the product being tested). After 15 min, the reaction is stopped with 2 ml of stop buffer (20 mM of HEPES, pH 5.5, 2 mM of EDTA). After passing samples over a column of 1 ml of DOWEX resin, the radioactivity is quantified by a liquid scintillation spectrometer.
The results are expressed in terms of the IC50 value and are summarised in the table of paragraph 2 (first column of results entitled "constitutive NO synthase, formation of citrulline").

[4] = 3,5-di-tert-butyl-4-hydroxybenzoic acid 20 mg/kg, aminoguanidine, their combination
[5] = Example 1, i.p. 4 h and 24 h after, A 30 mg/kg (NS), B 20 mg/kg (NS), AB 50 mg/kg (** very significant), control 270.4 ± 30.05
[6] = Example 1, i.p., A 30 mg/kg, B 20 mg/kg, AB 50 mg/kg
[7] = Example 2, i.p., A 10 mg/kg (NS), B 20 mg/kg (NS), AB: A 10 mg/kg and B 20 mg/kg (** very significant), control 270.4 ± 30.05
[8] = Example 2, i.p., A 10 mg/kg, B 20 mg/kg, AB: A 10 mg/kg and B 20 mg/kg
[9] = Example 3, A 0.03 mg/kg i.v. (NS), B 20 mg/kg i.p. (NS), AB: A 0.03 mg/kg i.v. and B 20 mg/kg i.p. (** very significant), control 237.68 ± 31.51
[10] = Example 3, A 0.03 mg/kg i.v., B 20 mg/kg i.p., AB: A 0.03 mg/kg i.v. and B 20 mg/kg i.p.

| Compound | IC50 formation of superoxide anions ([1]; 37° C.) | protection of the animals from ischaemia (in words) (focal cerebral ischaemia; [4]) | Volume of infarct (focal cerebral ischaemia; [5]) | % Protection (focal cerebral ischaemia; [6]) | IC50 (inducible NO synthase [2]) | IC50 (inducible NO synthase [3]) | IC50 (constitutive NO synthase) | IC50 ([1]; 37° C.) | IC50 (constitutive NO synthase; read-out: IC50 Constitutive NO synthase (formation of citrulline), rat cerebellum homogenate, pH 7.4, 15 min) | IC50 ([1]; Mus musculus, J774.A1, 37° C.) | Volume of infarct (focal cerebral ischaemia; [7]) | % Protection (focal cerebral ischaemia; [8]) | Volume of infarct (focal cerebral ischaemia; [9]) | % Protection (focal cerebral ischaemia; [10]) | protection of the animals from ischaemia (in words) (focal cerebral ischaemia; 7-nitroindazole 10 mg/kg, combined with 3,5-di-tert-butyl-4-hydroxybenzoic acid) | protection of the animals from ischaemia (in words) (focal cerebral ischaemia; nitroarginine 0.03 mg/kg, combined with i.p. 3,5-di-tert-butyl-4-hydroxybenzoic acid) |
| --- | --- | --- | --- | --- | --- | --- | --- | --- | --- | --- | --- | --- | --- | --- | --- | --- |
| N=C(N)NN [Example 1 A, aminoguanidine] | inactive | low activity | 233 ± 30.15 | 13.8% | 22 µM | 29 µM | > 300 µM | – | – | – | – | – | – | – | – | – |
| CC(C)(C)c1cc(C(=O)O)cc(C(C)(C)C)c1O.N=C(N)NN [Example 1 AB] | – | protects the animals from ischaemia in a highly significant manner | 89.6 ± 22.42 | 63.2% | 26 µM | 57 µM | – | 30 µM | > 300 µM | – | – | – | – | – | – | – |
| CC(C)(C)c1cc(C(=O)O)cc(C(C)(C)C)c1O [Example 1 B, 3,5-di-tert-butyl-4-hydroxybenzoic acid] | – | inactive | 250.9 ± 37.86 | 7.1% | – | – | – | – | – | 30 µM | 250.9 ± 37.86 | 7.1% | 222.9 ± 7.34 | 6.2% | – | – |
| O=[N+]([O-])c1cccc2cn[nH]c12 [Example 2 A, 7-nitroindazole] | – | – | – | – | – | – | – | – | – | – | 238.9 ± 27.08 | 11.7% | – | – | not significantly active | – |
| N=C(NCCC[C@H](N)C(=O)O)N[N+](=O)[O-] [Example 3 A, NGnitroarginine] | – | – | – | – | – | – | – | – | – | – | – | – | 238.14 ± 35.94 | 0% | – | not significantly active |
